Test results from PubChem BioAssay AID328 (DTP/NCI, 2004).
Values joined by “and” are separate entries in the source; they are usually repeats but may differ in a detail not shown here. Identical values can stand only once. Toxic doses and inconclusive results are not listed. The calls were made as follows: active = survival T/C of 150% or more; inactive = T/C below 125% in these data.

Test system: BDF1 mice, P388 leukemia ip, median survival T/C
Assay: NCI In Vivo Anticancer Drug Screen. Data for tumor model P388 Leukemia (intraperitoneal) in B6D2F1 (BDF1) mice
Settings: endpoint: median survival time, higher = longer survival
Method in brief: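 In tumour-bearing mice, survival after compound treatment is set against the vehicle group and given as a quotient.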

[1] = dose: 3.12 mg/kg/injection, schedule: Q01DX009 (ip), vehicle: Klucel (hydroxypropylcellulose) (HPC)
[2] = dose: 6.25 mg/kg/injection, schedule: Q01DX009 (ip), vehicle: Klucel (hydroxypropylcellulose) (HPC)
[3] = dose: 25.0 mg/kg/injection, schedule: Q01DX009 (ip), vehicle: saline with Tween-80
[4] = dose: 25.0 mg/kg/injection, schedule: Q04DX003 (ip), vehicle: saline with Tween-80
[5] = dose: 25.0 mg/kg/injection, schedule: Q01DX009 (ip), vehicle: saline
[6] = dose: 25.0 mg/kg/injection, schedule: Q04DX003 (ip), vehicle: saline
[7] = dose: 50.0 mg/kg/injection, schedule: Q01DX009 (ip), vehicle: saline
[8] = dose: 50.0 mg/kg/injection, schedule: Q04DX003 (ip), vehicle: saline
[9] = dose: 100.0 mg/kg/injection, schedule: Q04DX003 (ip), vehicle: saline
[10] = dose: 200.0 mg/kg/injection, schedule: Q04DX003 (ip), vehicle: saline
[11] = dose: 50.0 mg/kg/injection, schedule: Q01DX009 (ip), vehicle: saline with Tween-80
[12] = dose: 100.0 mg/kg/injection, schedule: Q01DX009 (ip), vehicle: saline with Tween-80
[13] = dose: 100.0 mg/kg/injection, schedule: Q04DX003 (ip), vehicle: saline with Tween-80
[14] = dose: 200.0 mg/kg/injection, schedule: Q01DX009 (ip), vehicle: saline with Tween-80
[15] = dose: 200.0 mg/kg/injection, schedule: Q04DX003 (ip), vehicle: saline with Tween-80
[16] = dose: 400.0 mg/kg/injection, schedule: Q04DX003 (ip), vehicle: saline with Tween-80
[17] = dose: 50.0 mg/kg/injection, schedule: Q01DX009 (ip), vehicle: Klucel (hydroxypropylcellulose) (HPC)
[18] = dose: 100.0 mg/kg/injection, schedule: Q01DX009 (ip), vehicle: Klucel (hydroxypropylcellulose) (HPC)
[19] = dose: 200.0 mg/kg/injection, schedule: Q01DX009 (ip), vehicle: Klucel (hydroxypropylcellulose) (HPC)
[20] = dose: 400.0 mg/kg/injection, schedule: Q01DX009 (ip), vehicle: Klucel (hydroxypropylcellulose) (HPC)

Measured: T/C

Cc1nc2ccccc2nc1CBr
inactive: dose: 2.66 mg/kg/injection, schedule: Q01DX009 (ip), vehicle: saline with Tween-80 109 % of control | [1] 111 % of control | dose: 6.0 mg/kg/injection, schedule: Q01DX009 (ip), vehicle: saline with Tween-80 122 % of control | [2] 122 % of control | dose: 6.25 mg/kg/injection, schedule: Q04DX003 (ip), vehicle: saline with Tween-80 109 % of control | dose: 6.3 mg/kg/injection, schedule: Q01DX009 (ip), vehicle: Klucel (hydroxypropylcellulose) (HPC) 105 % of control | dose: 12.5 mg/kg/injection, schedule: Q01DX009 (ip), vehicle: Klucel (hydroxypropylcellulose) (HPC) 105 % of control | dose: 12.5 mg/kg/injection, schedule: Q04DX003 (ip), vehicle: saline with Tween-80 109 % of control | [3] 122 % of control | [4] 113 % of control

Cc1cc([N+](=O)[O-])cc(C)c1OC(=O)c1ccc(N=C(N)N)cc1
inactive: dose: 6.25 mg/kg/injection, schedule: Q01DX009 (ip), vehicle: saline 93 % of control | dose: 12.5 mg/kg/injection, schedule: Q01DX009 (ip), vehicle: saline 101 % of control | dose: 12.5 mg/kg/injection, schedule: Q04DX003 (ip), vehicle: saline 104 % of control | [5] 97 % of control | [6] 102 % of control | [7] 95 % of control | [8] 101 % of control | [9] 95 % of control

NC(=O)CNCCS(=O)(=O)O
inactive: dose: 100.0 mg/kg/injection, schedule: Q01DX009 (ip), vehicle: saline 91 % of control | [9] 100 % of control | dose: 200.0 mg/kg/injection, schedule: Q01DX009 (ip), vehicle: saline 87 % of control | [10] 109 % of control | dose: 400.0 mg/kg/injection, schedule: Q04DX003 (ip), vehicle: saline 104 % of control

S=C(N/N=C/c1ccc(-c2ccccc2)cc1)Nc1ccccc1
inactive: [11] 91 % of control | dose: 50.0 mg/kg/injection, schedule: Q04DX003 (ip), vehicle: saline with Tween-80 95 % of control | [12] 91 % of control | [13] 91 % of control | [14] 91 % of control | [15] 91 % of control

O=C(Nc1ccc(C(=O)Nc2ccc(C3=NCCCN3)cc2)cc1)Nc1ccc(C2=NCCCN2)cc1
122 % of control and 204 % of control: dose: 16.5 mg/kg/injection, schedule: Q04DX003 (ip), vehicle: saline with Tween-80
active: [4] 245 % of control and 163 % of control | dose: 37.5 mg/kg/injection, schedule: Q04DX003 (ip), vehicle: saline with Tween-80 159 % of control and 186 % of control

CCOC(=O)/C=C\CBr
inactive: dose: 1.5 mg/kg/injection, schedule: Q01DX010 (ip), vehicle: saline 100 % of control | dose: 3.0 mg/kg/injection, schedule: Q01DX010 (ip), vehicle: saline 100 % of control | dose: 6.0 mg/kg/injection, schedule: Q01DX010 (ip), vehicle: saline 105 % of control | dose: 12.0 mg/kg/injection, schedule: Q01DX010 (ip), vehicle: saline 100 % of control and 115 % of control | dose: 24.0 mg/kg/injection, schedule: Q01DX010 (ip), vehicle: saline 100 % of control | dose: 48.0 mg/kg/injection, schedule: Q01DX010 (ip), vehicle: saline 120 % of control

CCOC(=O)NP(=O)(N1CC1)N1CC1
active: dose: 11.0 mg/kg/injection, schedule: Q04DX003 (ip), vehicle: saline 272 % of control | [6] 225 % of control | dose: 33.0 mg/kg/injection, schedule: Q04DX003 (ip), vehicle: saline 333 % of control and 220 % of control | [8] 300 % of control and 172 % of control and 195 % of control
inactive: dose: 2.1 mg/kg/injection, schedule: Q04DX003 (ip), vehicle: saline 105 % of control | dose: 3.1 mg/kg/injection, schedule: Q04DX003 (ip), vehicle: saline 110 % of control | dose: 75.0 mg/kg/injection, schedule: Q04DX003 (ip), vehicle: saline 88 % of control and 95 % of control

CCSSC(=Nc1ccccc1)OCC(C)C
inactive: dose: 50.0 mg/kg/injection, schedule: Q01DX009 (ip), vehicle: other 119 % of control

CC1=CC(=O)C=CC1(C)C(Cl)Cl (centres undefined)
inactive: [13] 90 % of control | [15] 105 % of control | [16] 100 % of control

OC(COc1cccc(C(F)(F)F)c1)CN1CCN(c2ccc(F)cc2)CC1 (centres undefined)
inactive: [3] 96 % of control | [11] 96 % of control | [12] 118 % of control

CCCC(O)C(C)(C)[N+](=O)[O-] (centres undefined)
inactive: dose: 6.25 mg/kg/injection, schedule: Q01DX009 (ip), vehicle: saline with Tween-80 99 % of control | dose: 12.5 mg/kg/injection, schedule: Q01DX009 (ip), vehicle: saline with Tween-80 89 % of control

CCOC(=O)C1CN(c2ccccc2)C(=O)C1=O (centres undefined)
inactive: [17] 112 % of control | [18] 118 % of control | [19] 110 % of control | [20] 110 % of control

CCOC(OC(C)=O)OC(C)=O
inactive: dose: 50.0 mg/kg/injection, schedule: Q01DX001 (ip), vehicle: saline 100 % of control | dose: 100.0 mg/kg/injection, schedule: Q01DX001 (ip), vehicle: saline 115 % of control | dose: 200.0 mg/kg/injection, schedule: Q01DX001 (ip), vehicle: saline 110 % of control

CC(C)(C)c1ccc2c(cc[n+]3ccccc23)c1
inactive: dose: 1.56 mg/kg/injection, schedule: Q01DX005 (ip), vehicle: saline with Tween-80 115 % of control | dose: 3.13 mg/kg/injection, schedule: Q01DX005 (ip), vehicle: saline with Tween-80 123 % of control

CC1CC2=CC(=O)C=CC2(C)C2CCC3(C)C(O)CCC3C12 (centres undefined)
inactive: dose: 1.56 mg/kg/injection, schedule: Q01DX009 (ip), vehicle: Klucel (hydroxypropylcellulose) (HPC) 86 % of control | [1] 107 % of control | [2] 99 % of control | dose: 25.0 mg/kg/injection, schedule: Q01DX009 (ip), vehicle: Klucel (hydroxypropylcellulose) (HPC) 95 % of control | [17] 91 % of control | [7] 90 % of control | [18] 95 % of control and 97 % of control | dose: 100.0 mg/kg/injection, schedule: Q04DX003 (ip), vehicle: Klucel (hydroxypropylcellulose) (HPC) 91 % of control | [19] 96 % of control and 97 % of control | dose: 200.0 mg/kg/injection, schedule: Q04DX003 (ip), vehicle: Klucel (hydroxypropylcellulose) (HPC) 95 % of control | [20] 86 % of control and 88 % of control | dose: 400.0 mg/kg/injection, schedule: Q04DX003 (ip), vehicle: Klucel (hydroxypropylcellulose) (HPC) 87 % of control

COc1c2occc2c(CC(O)C(C)(C)O)c2ccc(=O)oc12 (centres undefined)
inactive: dose: 43.8 mg/kg/injection, schedule: Q01DX009 (ip), vehicle: Klucel (hydroxypropylcellulose) (HPC) 103 % of control | dose: 87.5 mg/kg/injection, schedule: Q01DX009 (ip), vehicle: Klucel (hydroxypropylcellulose) (HPC) 92 % of control | dose: 175.0 mg/kg/injection, schedule: Q01DX009 (ip), vehicle: Klucel (hydroxypropylcellulose) (HPC) 90 % of control

CC1CN1P1(N2CC2C)=NP(N2CC2C)(N2CC2C)=NP(N2CC2C)(N2CC2C)=N1 (centres undefined)
active: dose: 15.0 mg/kg/injection, schedule: Q01DX009 (ip), vehicle: saline 161 % of control | dose: 16.5 mg/kg/injection, schedule: Q01DX009 (ip), vehicle: saline 155 % of control | [5] 160 % of control and 164 % of control | dose: 37.5 mg/kg/injection, schedule: Q01DX009 (ip), vehicle: saline 169 % of control | [7] 203 % of control | [9] 166 % of control and 214 % of control
inactive: dose: 4.4 mg/kg/injection, schedule: Q01DX009 (ip), vehicle: saline 122 % of control | dose: 6.6 mg/kg/injection, schedule: Q01DX009 (ip), vehicle: saline 124 % of control | [6] 114 % of control | [10] 102 % of control

COC(=O)c1cc(C)n(C)c(=O)c1CNS(=O)(=O)c1ccccc1
inactive: [13] 98 % of control | [15] 100 % of control | [16] 98 % of control

Cc1ccc(C)c(-n2c(-c3ccc(Br)cc3)csc2=NC(=O)c2ccccc2F)c1
inactive: [12] 110 % of control | [14] 100 % of control | dose: 400.0 mg/kg/injection, schedule: Q01DX009 (ip), vehicle: saline with Tween-80 115 % of control
